From ChEMBL document CHEMBL1201862, “PubChem BioAssay data set” (2004)
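These data come from cells grown in 96-well plates and exposed to compound for 48 hours at five concentrations. The concentration for 50% growth inhibition is given as GI50.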 Calls of active or inactive are those of the source. No stated cut-off is given here; in the data, active = GI50 up to about 1.1 µM and inactive = higher.

Experiments:
Test in all cases: inhibition of tumour cell growth, NCI panel, 48 h
SN12C = tested on: SN12C
SF-539 = tested on: SF-539
HCT-116 = tested on: HCT-116
LOX IMVI = tested on: LOX IMVI
SF-268 = tested on: SF-268
CCRF-CEM = tested on: CCRF-CEM
U-251 = tested on: U-251
SNB-75 = tested on: SNB-75
NCI-H460 = tested on: NCI-H460
K562 = tested on: K562
MOLT-4 = tested on: MOLT-4
MCF7 = tested on: MCF7
KM12 = tested on: KM12
HL-60 = tested on: HL-60
RPMI-8226 = tested on: RPMI-8226
M14 = tested on: M14
SK-MEL-5 = tested on: SK-MEL-5
MDA-MB-435 = tested on: MDA-MB-435
IGROV-1 = tested on: IGROV-1
UO-31 = tested on: UO-31
OVCAR-8 = tested on: OVCAR-8
COLO 205 = tested on: COLO 205
Malme-3M = tested on: Malme-3M
HOP-92 = tested on: HOP-92
UACC-62 = tested on: UACC-62
UACC-257 = tested on: UACC-257
MDA-MB-231 = tested on: MDA-MB-231
SR = tested on: SR
ACHN = tested on: ACHN
CAKI-1 = tested on: CAKI-1
HCT-15 = tested on: HCT-15
A549 = tested on: A549
SK-MEL-2 = tested on: SK-MEL-2
EKVX = tested on: EKVX
A498 = tested on: A498
T47D = tested on: T47D
NCI-H226 = tested on: NCI-H226
NCI-H522 = tested on: NCI-H522
PC-3 = tested on: PC-3
OVCAR-4 = tested on: OVCAR-4
SNB-19 = tested on: SNB-19
Hs-578T = tested on: Hs-578T
786-0 = tested on: 786-0
MDA-N = tested on: MDA-N
NCI-H23 = tested on: NCI-H23
HCC 2998 = tested on: HCC 2998
BT-549 = tested on: BT-549
SW-620 = tested on: SW-620
RXF 393 = tested on: RXF 393
TK-10 = tested on: TK-10
HT-29 = tested on: HT-29
SK-MEL-28 = tested on: SK-MEL-28
OVCAR-5 = tested on: OVCAR-5
NCI/ADR-RES = tested on: NCI/ADR-RES
HOP-62 = tested on: HOP-62
DU-145 = tested on: DU-145
SF-295 = tested on: SF-295
SK-OV-3 = tested on: SK-OV-3
OVCAR-3 = tested on: OVCAR-3

Q: Which results are given for `O=C1C(Cl)C2(CC(/C=C/c3ccccc3)=NN2c2cccc(S(=O)(=O)O)c2)N1c1nc2ccccc2s1` (centres undefined)?
A: GI50 (SN12C): 17.2 µM (inactive); GI50 (SF-539): 15.3 µM (inactive); GI50 (HCT-116): 21.1 µM (inactive); GI50 (LOX IMVI): 2.79 µM (inactive); GI50 (SF-268): 20 µM (inactive); GI50 (CCRF-CEM): 12.4 µM (inactive); GI50 (U-251): 14.7 µM (inactive); GI50 (SNB-75): 15.3 µM (inactive); GI50 (NCI-H460): 22.8 µM (inactive); GI50 (K562): 21.4 µM (inactive); GI50 (MOLT-4): 20.7 µM (inactive); GI50 (MCF7): 16.7 µM (inactive); GI50 (KM12): 16.3 µM (inactive); GI50 (HL-60): 14.9 µM (inactive); GI50 (RPMI-8226): 13.8 µM (inactive); GI50 (M14): 17.2 µM (inactive); GI50 (SK-MEL-5): 15.5 µM (inactive); GI50 (MDA-MB-435): 21.4 µM (inactive); GI50 (IGROV-1): 8.55 µM (inactive); GI50 (UO-31): 4.32 µM (inactive); GI50 (OVCAR-8): 11.9 µM (inactive); GI50 (COLO 205): 19.2 µM (inactive); GI50 (Malme-3M): 17.3 µM (inactive); GI50 (HOP-92): 11.7 µM (inactive); GI50 (UACC-62): 14 µM (inactive); GI50 (UACC-257): 17.8 µM (inactive); GI50 (MDA-MB-231): 12.2 µM (inactive); GI50 (SR): 13.4 µM (inactive); GI50 (ACHN): 16.6 µM (inactive); GI50 (CAKI-1): 9.46 µM (inactive); GI50 (HCT-15): 15.9 µM; GI50 (A549): 15.3 µM (inactive); GI50 (SK-MEL-2): 17.3 µM (inactive); GI50 (EKVX): 19.2 µM (inactive); GI50 (A498): 19.3 µM (inactive); GI50 (T47D): 11 µM (inactive); GI50 (NCI-H226): 17.7 µM (inactive); GI50 (NCI-H522): 6.53 µM (inactive); GI50 (PC-3): 16.1 µM (inactive); GI50 (OVCAR-4): 16.4 µM (inactive); GI50 (SNB-19): 25.2 µM (inactive); GI50 (Hs-578T): 30.9 µM (inactive); GI50 (786-0): 17.3 µM (inactive); GI50 (MDA-N): 24.2 µM (inactive); GI50 (NCI-H23): 13.2 µM (inactive); GI50 (HCC 2998): 14.4 µM (inactive); GI50 (BT-549): 14.8 µM (inactive); GI50 (SW-620): 28.8 µM (inactive); GI50 (RXF 393): 7.83 µM (inactive); GI50 (TK-10): 16.9 µM (inactive); GI50 (HT-29): 19.4 µM (inactive); GI50 (SK-MEL-28): 44.8 µM (inactive); GI50 (OVCAR-5): 18.1 µM (inactive); GI50 (NCI/ADR-RES): 28.2 µM (inactive)

Q: How did the GI50 (SN12C) turn out when `COc1ccc2c(c1)-c1[nH]c3ccccc3c1CC2` was run?
A: 14.4 µM (inactive)

Q: What about the GI50 (SF-539) of the same molecule?
A: 17.4 µM (inactive)

Q: What about the GI50 (HOP-62) of the same molecule?
A: 16.8 µM (inactive)

Q: And the GI50 (HCT-116)?
A: 16.9 µM (inactive)

Q: And the GI50 (LOX IMVI)?
A: 18.2 µM (inactive)

Q: What about the GI50 (SF-268) of the same molecule?
A: 14.9 µM (inactive)

Q: What about the GI50 (CCRF-CEM) of the same molecule?
A: 18 µM (inactive)

Q: And the GI50 (U-251)?
A: 16.6 µM (inactive)

Q: And the GI50 (SNB-75)?
A: 15.2 µM (inactive)

Q: And the GI50 (DU-145)?
A: 17.9 µM (inactive)

Q: And the GI50 (NCI-H460)?
A: 15.6 µM (inactive)

Q: And the GI50 (K562)?
A: 21.6 µM (inactive)

Q: What about the GI50 (MOLT-4) of the same molecule?
A: 12.1 µM (inactive)

Q: And the GI50 (MCF7)?
A: 14.9 µM (inactive)

Q: What about the GI50 (KM12) of the same molecule?
A: 13.6 µM (inactive)

Q: And the GI50 (SF-295)?
A: 14.2 µM (inactive)

Q: What about the GI50 (RPMI-8226) of the same molecule?
A: 20.4 µM (inactive)

Q: And the GI50 (M14)?
A: 17.4 µM (inactive)

Q: And the GI50 (SK-MEL-5)?
A: 13.2 µM (inactive)

Q: What about the GI50 (SK-OV-3) of the same molecule?
A: 18.1 µM (inactive)

Q: What about the GI50 (MDA-MB-435) of the same molecule?
A: 16.6 µM (inactive)

Q: What about the GI50 (IGROV-1) of the same molecule?
A: 3.9 µM (inactive)

Q: And the GI50 (UO-31)?
A: 15.5 µM (inactive)

Q: And the GI50 (OVCAR-8)?
A: 12.6 µM (inactive)

Q: And the GI50 (COLO 205)?
A: 16.6 µM (inactive)

Q: And the GI50 (Malme-3M)?
A: 12.4 µM (inactive)

Q: What about the GI50 (HOP-92) of the same molecule?
A: 17.1 µM (inactive)

Q: And the GI50 (UACC-62)?
A: 15.6 µM (inactive)

Q: And the GI50 (UACC-257)?
A: 16.3 µM (inactive)

Q: What about the GI50 (MDA-MB-231) of the same molecule?
A: 16.8 µM (inactive)

Q: And the GI50 (ACHN)?
A: 18.1 µM (inactive)

Q: And the GI50 (CAKI-1)?
A: 15.4 µM (inactive)

Q: What about the GI50 (HCT-15) of the same molecule?
A: 14.7 µM

Q: And the GI50 (A549)?
A: 15.2 µM (inactive)

Q: What about the GI50 (SK-MEL-2) of the same molecule?
A: 15.5 µM (inactive)

Q: What about the GI50 (EKVX) of the same molecule?
A: 10.1 µM (inactive)

Q: And the GI50 (T47D)?
A: 13.5 µM (inactive)

Q: And the GI50 (NCI-H226)?
A: 13.3 µM (inactive)

Q: And the GI50 (NCI-H522)?
A: 6.31 µM (inactive)

Q: What about the GI50 (PC-3) of the same molecule?
A: 14.9 µM (inactive)

Q: What about the GI50 (OVCAR-4) of the same molecule?
A: 17.1 µM (inactive)

Q: What about the GI50 (SNB-19) of the same molecule?
A: 15.7 µM (inactive)

Q: And the GI50 (OVCAR-3)?
A: 18.2 µM (inactive)

Q: What about the GI50 (Hs-578T) of the same molecule?
A: 15.4 µM (inactive)

Q: What about the GI50 (786-0) of the same molecule?
A: 16.4 µM (inactive)

Q: And the GI50 (MDA-N)?
A: 16 µM (inactive)

Q: What about the GI50 (NCI-H23) of the same molecule?
A: 13.6 µM (inactive)

Q: What about the GI50 (HCC 2998) of the same molecule?
A: 10.2 µM (inactive)

Q: And the GI50 (BT-549)?
A: 17.2 µM (inactive)

Q: What about the GI50 (SW-620) of the same molecule?
A: 16.8 µM (inactive)

Q: What about the GI50 (TK-10) of the same molecule?
A: 16.1 µM (inactive)

Q: What about the GI50 (HT-29) of the same molecule?
A: 11 µM (inactive)

Q: And the GI50 (SK-MEL-28)?
A: 16.8 µM (inactive)

Q: And the GI50 (OVCAR-5)?
A: 15.7 µM (inactive)

Q: And the GI50 (NCI/ADR-RES)?
A: 11.9 µM (inactive)
